Laboratory results reported in article PMC7481701 (Royal Society Open Science, 2020).

Tests used:
[1] = molecular target: T1, ChTL activity of the purified human 20S proteasome (Homo sapiens, UniProt P28074); assay: Purified 20S proteasome activity assay, ChTL activity (Suc-LLVY-AMC); assay type: biochemical; conditions: for inhibitory activity against the 20S proteasome (in words): ChTL activity, figure 2b
T1 construct: The human erythrocyte 20S proteasome was obtained from Boston Biochem; purchased Boston Biochem; host or cells: human erythrocytes
Description: For the proteasome inhibition assays, the peptide-7-amino-4-methylcoumarin (AMC) substrates (25 µM Suc-LLVY-AMC) and inhibitors were added to assay solutions. The assay buffer had the following composition: 25 mM HEPES, 0.5 mM EDTA, 0.03% SDS (pH 8.0). Human erythrocyte 20S proteasome (100 ng) was added to the assay buffer containing substrates and inhibitors at a final volume of 100 µl. After incubation at 37°C for 1 h, the fluorescence emission spectrum at 450 nm (λex, 365 nm) was measured by using a fluorescence microplate reader. The inhibition against PGPH activity of the 20S proteasome was determined as described above except that Z-LLE-AMC was used as the substrate. For the assay of inhibition against the trypsin-like activity of complex 2, the SDS was omitted from the assay buffer and Boc-LRR-AMC was used as the substrate. The assay of inhibition against the trypsin-like activity of complexes 1 and 3 was carried out by the Screening Committee of Anticancer Drugs (Cancer Chemotherapy Center, Japanese Foundation for Cancer Research).
[picture] For the proteasome inhibition assays, the peptide-AMC substrates (25 µM Suc-LLVY-AMC) and inhibitors were added to assay solutions. The assay buffer had the following composition: 25 mM HEPES, 0.5 mM EDTA, 0.03% SDS (pH 8.0). Human erythrocyte 20S proteasome (100 ng) was added to the assay buffer containing substrates and inhibitors at a final volume of 100 µL. After incubation at 37°C for 1 h, the fluorescence emission spectrum at 450 nm (λex, 365 nm) was measured by using a fluorescence microplate reader.

[2] = molecular target: T2, ChTL activity of the 20S proteasome from cell lysates (colon26) (Mus musculus, UniProt O55234); assay: Inhibition against chymotrypsin-like activity in whole-cell lysates; assay type: biochemical; conditions: whole-cell lysate, figure S3
T2 construct: endogenous in cells; host or cells: colon26 whole-cell lysate
Description: Cultures of colon26 were grown at 37°C in RPMI1640 supplemented with 10% fetal bovine serum. Whole-cell lysates were prepared according to the method in the literature.
(§1) For the determination of inhibitory activity in whole-cell lysates, peptide-AMC substrates (50 µM Suc-LLVY-AMC), inhibitors and the whole-cell lysate (15 µg) were added to the assay solutions. The following assay buffer was used: 25 mM HEPES, 0.5 mM EDTA, 0.03% SDS (pH 8.0). After incubation at 37°C for 4 h, the fluorescence emission was measured at 450 nm (λex = 365 nm) by using a fluorescence microplate reader.
as §1, with “the whole cell lysate,” for “whole-cell lysates,”, “inhibitors,” for “inhibitors”, “whole cell” for “whole-cell”, “37 °C” for “37°C”

[3] = purified 20S proteasome, figure S2

remaining activity at 10 µM ([1]; at 10 µM, purified 20S proteasome, figure S2, read-out: residual activity of ChTL) | IC50 ([1]; purified human erythrocyte 20S proteasome 100 ng, 25 µM Suc-LLVY-AMC, 37°C 1 h, mean ± s.d. (n = 3)) | inhibition in the cell-free system (in words) [2] | Structure (SMILES) | inhibitory activity against the 20S proteasome (in words) [1, 3]
 |  |  | NCCN.[Cl-].[Cl-].[Pt+2].c1ccncc1.c1ccncc1 [Pt(py)2(ethylenediamine), (ethylenediamine)bispyridine platinum(II) chloride, reference compound] | no inhibitory activity
43% | ~10 µM | no inhibition | NCCNCc1c2ccccc2cc2ccccc12 [N-9-anthracenylmethyl-1,2-ethanediamine, reference compound] | weak inhibitory activity
